This passage reports IC50 and IC90 results from article PMC13129536 (The Journal of Biological Chemistry, 2026).

In this test the test system is M. tuberculosis Erdman. The test can be described thus: Pathogenic (BSL3) tuberculosis CFU assay. It counts as cell-based. Conditions: Mycobacterium tuberculosis, 96 h; for IC50: read-out: IC50 (CFU/mL at 96 hours); for IC90: read-out: IC90 (CFU/mL at 96 hours).

As to `Cc1ccc(C)c(Nc2nc(NCc3ccccc3)c3ccccc3n2)c1` [Compound F0909-0124], the IC50 was around 8.97 µM.
`C[C@@H](O)[C@H]1C(=O)N2C(C(=O)O)=C(S[C@@H]3CN[C@H](C(=O)N(C)C)C3)[C@H](C)[C@H]12` [Meropenem, meropenem, reference compound]: the IC50 was 0.697 ± 0.11 µg/mL and the IC90 turned out to be 1.16 ± 0.255 µg/mL.
The corresponding values for `c1ccc(-c2nc3cc(Cc4ccc5[nH]c(-c6ccccn6)nc5c4)ccc3[nH]2)nc1` [Compound F0850-5995] are around 1.12 µM and 6.64 ± 3.86 µM.
